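A five-concentration, 48-hour dose response in 96-well plates underlies each endpoint, interpolated linearly between surrounding concentrations. Here, GI50 denotes the concentration required for 50% inhibition of growth.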 Active and inactive are the calls of the source. No stated cut-off is given here; in the data, active = GI50 up to about 1.1 µM and inactive = higher.
Experiments:
Test in all cases: growth of human tumour cells (NCI), 48 h
NCI-H522 = test system: NCI-H522
A549 = test system: A549
EKVX = test system: EKVX
CCRF-CEM = test system: CCRF-CEM
M14 = test system: M14
HL-60 = test system: HL-60
A498 = test system: A498
NCI-H226 = test system: NCI-H226
SNB-75 = test system: SNB-75
HT-29 = test system: HT-29
MOLT-4 = test system: MOLT-4
Malme-3M = test system: Malme-3M
HOP-62 = test system: HOP-62
UACC-257 = test system: UACC-257
IGROV-1 = test system: IGROV-1
RXF 393 = test system: RXF 393
SK-MEL-2 = test system: SK-MEL-2

Measured: GI50

COC(=O)C1=Cc2c(cc(OC)c(OC)c2OC)[C@H](c2ccc(OC)c(OC)c2OC)C1C(=O)OC (stereo partly drawn)
inactive: NCI-H522 89.9 µM | A549 > 100 µM | EKVX > 100 µM | CCRF-CEM > 100 µM | M14 > 100 µM | HL-60 54.6 µM | A498 > 100 µM | NCI-H226 > 100 µM | SNB-75 > 100 µM | HT-29 36.1 µM | MOLT-4 83 µM | Malme-3M > 100 µM | HOP-62 > 100 µM | UACC-257 > 100 µM | IGROV-1 > 100 µM | RXF 393 > 100 µM

COc1ccccc1NC(=O)CC(=O)N/N=C/c1ccc(N(CCC#N)S(=O)(=O)c2ccccc2)cc1
inactive: NCI-H522 > 100 µM | A549 > 100 µM | EKVX > 100 µM | CCRF-CEM > 100 µM | M14 > 100 µM | HL-60 > 100 µM | NCI-H226 > 100 µM | SK-MEL-2 > 100 µM | SNB-75 > 100 µM | HT-29 > 100 µM | MOLT-4 > 100 µM | Malme-3M > 100 µM | HOP-62 > 100 µM | UACC-257 > 100 µM | IGROV-1 > 100 µM

Nc1ccn(CCNCCn2cnc3nc(N)[nH]c(=O)c32)c(=O)n1
inactive: NCI-H522 > 100 µM | A549 > 100 µM | EKVX > 100 µM | HL-60 > 100 µM | A498 > 100 µM | NCI-H226 > 100 µM | SK-MEL-2 > 100 µM | HT-29 > 100 µM | Malme-3M > 100 µM | HOP-62 > 100 µM | UACC-257 > 100 µM | IGROV-1 > 100 µM | RXF 393 > 100 µM

COc1ccc(-c2c(N)[n+]([O-])c3ccccc3[n+]2[O-])cc1OC
inactive: NCI-H522 > 100 µM | A549 > 100 µM | EKVX > 100 µM | M14 > 100 µM | HL-60 > 100 µM | A498 > 100 µM | NCI-H226 > 100 µM | SK-MEL-2 > 100 µM | SNB-75 65.9 µM | HT-29 > 100 µM | MOLT-4 > 100 µM | Malme-3M > 100 µM | HOP-62 > 100 µM | UACC-257 > 100 µM | IGROV-1 > 100 µM

C[n+]1c2n(c3nc(N)[nH]c(=O)c31)C1OC(C2)C(O)C1O (stereo not drawn)
inactive: NCI-H522 > 100 µM | A549 > 100 µM | EKVX > 100 µM | CCRF-CEM > 100 µM | M14 > 100 µM | HL-60 > 100 µM | A498 > 100 µM | NCI-H226 > 100 µM | SK-MEL-2 > 100 µM | SNB-75 > 100 µM | HT-29 > 100 µM | MOLT-4 > 100 µM | Malme-3M > 100 µM | HOP-62 > 100 µM | UACC-257 > 100 µM | IGROV-1 > 100 µM | RXF 393 > 100 µM

Cn1c2ccccc2c2cc(-c3ccccc3)c3c(c21)C(=O)c1ccccc1C3=O
inactive: NCI-H522 15.2 µM | A549 20.4 µM | EKVX > 10 µM | CCRF-CEM 5.19 µM | M14 14.3 µM | HL-60 9.35 µM | A498 > 100 µM | NCI-H226 22 µM | SK-MEL-2 19.5 µM | SNB-75 34.4 µM | HT-29 31.9 µM | MOLT-4 5.04 µM | Malme-3M 22.3 µM | HOP-62 40.5 µM | UACC-257 18 µM | IGROV-1 21 µM

Cc1ccc(C(c2c(O)c3ccccc3n(-c3ccccc3)c2=O)c2c(O)c3ccccc3n(-c3ccccc3)c2=O)cc1
inactive: NCI-H522 > 100 µM | A549 > 100 µM | EKVX 35.3 µM | CCRF-CEM 7.06 µM | NCI-H226 > 100 µM | SK-MEL-2 > 100 µM | MOLT-4 24.2 µM | Malme-3M > 100 µM | HOP-62 > 100 µM | RXF 393 53.2 µM

Cc1ccc(S(=O)OC2C3CC4CC(C3)CC2C4)cc1 (stereo not drawn)
inactive: NCI-H522 > 100 µM | A549 > 100 µM | EKVX > 100 µM | M14 > 100 µM | HL-60 > 100 µM | A498 > 100 µM | NCI-H226 > 100 µM | SNB-75 > 100 µM | HT-29 > 100 µM | MOLT-4 > 100 µM | Malme-3M > 100 µM | HOP-62 > 100 µM | UACC-257 > 100 µM | IGROV-1 > 100 µM | RXF 393 > 100 µM

O=C1CCCC/C1=C\c1ccc(Cl)c(Cl)c1
inactive: A549 34.4 µM | EKVX 45.7 µM | CCRF-CEM 21.3 µM | M14 19.9 µM | HL-60 19 µM | A498 58.5 µM | SNB-75 16.3 µM | HT-29 22.3 µM | MOLT-4 18.1 µM | HOP-62 57.7 µM | IGROV-1 25.2 µM

— ChEMBL document CHEMBL1201862, “PubChem BioAssay data set” (2004)
